# Like-named read-outs stand apart in the source and are kept apart here. Square brackets hold non-standard residues; d marks the D form. Ends that are not written are not given here. Peptide text beside a SMILES is read from it. * marks the point of attachment. Decanoyl = CCCCCCCCCC(=O)*
# How the values were obtained:
# [1] = test system: 30 species of Acinetobacter baumannii (A. baumannii); assay type: cell-based; settings: for MIC50 / MIC90: against 30 species of Acinetobacter baumannii
# Description: In addition, the results obtained by measuring the minimum inhibitory concentrations of KSH29, KSH42 and KSH43 against 30 species of Acinetobacter baumannii (A. baumannii) are shown in Table 4 below.
# The minimum inhibitory concentrations (MIC) against the 30 species of Acinetobacter baumannii were measured in the following manner.
# The strain 1605 was purchased from ATCC (American Type Culture Collection, USA). In addition, the strain 40203 was purchased from the Korean Culture Center of Microorganisms.
# The COL^R refers to resistance to colistin, the TGC^R refers to resistance to tigecycline, and the TGC^I refers to tigecycline intermediate strains.
# [2] = Solubility of antibacterial peptides in solution; assay type: physicochemical
# [3] = test system: MRAB (A. baumannii) ATCC BAA 1605; assay type: cell-based, Acinetobacter baumannii; settings: ATCC BAA 1605, 18 h
# How it was run: (§1)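 Mid-log cultures grown in CAMHB and diluted to 1× 10^6 cfu/ml in PBS were mixed with an equal volume of peptide in CAMHB (80 µM to 0.63 µM twofold dilutions). MIC taken as the mean of three independent experiments.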
# [4] = test system: VRE (E. faecalis) ATCC 51575; assay type: cell-based, Enterococcus faecalis; settings: ATCC 51575, 18 h
# How it was run: as §1
# [5] = test system: MRSA (S. aureus) KCCM 40510; assay type: cell-based, Staphylococcus aureus; settings: KCCM 40510, 18 h
# How it was run: as §1
# [6] = test system: MRPA (P. aeruginosa) CCARM 2180; assay type: cell-based, Pseudomonas aeruginosa; settings: CCARM 2180, 18 h
# How it was run: as §1
compound,measurement,setting,value
"CC(C)[C@@H](NC(=O)[C@H](N)Cc1c[nH]c2ccccc12)C(=O)N[C@@H](C(=O)N[C@H](Cc1c[nH]c2ccccc12)C(=O)N[C@@H](C(=O)N[C@@H](C(=O)N[C@H](Cc1c[nH]c2ccccc12)C(=O)N[C@H](CCCNC(=N)N)C(=O)N[C@H](CCCNC(=N)N)C(=O)N[C@H](CCCNC(=N)N)C(N)=O)C(C)C)C(C)C)C(C)C [KSH42, wvvwvvwrrr] (H-[dW][dV][dV][dW][dV][dV][dW][dR][dR][dR]-NH2; N-terminus assumed)",MIC50,[1],1.25 µM
same,MIC90,[1],1.25 µM
same,solubility at 12 h,[2]; aqueous buffer,≥ 100 µM
same,solubility at 12 h,[2]; plasma or biological fluid,100 µM
same,solubility at 12 h,[2]; water,> 2000 µM
"CC[C@@H](C)[C@@H](NC(=O)[C@@H](Cc1c[nH]c2ccccc12)NC(=O)[C@H](NC(=O)[C@@H](CC(C)C)NC(=O)[C@H](N)Cc1c[nH]c2ccccc12)C(C)C)C(=O)N[C@H](Cc1c[nH]c2ccccc12)C(=O)N[C@H](CCCNC(=N)N)C(=O)N[C@H](CCCNC(=N)N)C(=O)N[C@H](CCCNC(=N)N)C(N)=O [KSH29, wlvwiwrrr] (H-[dW][dL][dV][dW][dI][dW][dR][dR][dR]-NH2; N-terminus assumed)",MIC,[1]; A. baumannii strain 1,1.25 µM
same,MIC,[1]; A. baumannii strain 6 (TGC^I),1.25 µM
same,MIC,[1]; A. baumannii strain 10,1.25 µM
same,MIC,[1]; A. baumannii strain 14,1.25 µM
same,MIC,[1]; A. baumannii strain 15,1.25 µM
same,MIC,[1]; A. baumannii strain 16,1.25 µM
same,MIC,[1]; A. baumannii strain 19,1.25 µM
same,MIC,[1]; A. baumannii strain 22 (TGC^I),1.25 µM
same,MIC,[1]; A. baumannii strain 39,1.25 µM
same,MIC,[1]; A. baumannii strain 44,1.25 µM
same,MIC,[1]; A. baumannii strain 66,1.25 µM
same,MIC,[1]; A. baumannii strain 68,1.25 µM
same,MIC,[1]; A. baumannii strain 69,1.25 µM
same,MIC,[1]; A. baumannii strain 71,1.25 µM
same,MIC,[1]; A. baumannii strain 76,1.25 µM
same,MIC,[1]; A. baumannii strain 82,1.25 µM
same,MIC,[1]; A. baumannii strain 89,1.25 µM
same,MIC,[1]; A. baumannii strain 102 (TGC^I),1.25 µM
same,MIC,[1]; A. baumannii strain 127,1.25 µM
same,MIC,[1]; A. baumannii strain 141 (TGC^R),1.25 µM
same,MIC,[1]; A. baumannii strain 144,1.25 µM
same,MIC,[1]; A. baumannii strain 147 (TGC^R),1.25 µM
same,MIC,[1]; A. baumannii strain 152 (TGC^R),1.25 µM
same,MIC,[1]; A. baumannii strain 10087,1.25 µM
same,MIC,[1]; A. baumannii strain 19606,1.25 µM
same,MIC,[1]; A. baumannii strain 40203 (Korean Culture Center of Microorganisms),1.25 µM
same,MIC50,[1],1.25 µM
same,MIC90,[1],1.25 µM
same,solubility at 12 h,[2]; aqueous buffer,≥ 100 µM
same,solubility at 12 h,[2]; plasma or biological fluid,50 µM
same,solubility at 12 h,[2]; water,> 2000 µM
"CN[C@H](CC(C)C)C(=O)N[C@H]1C(=O)N[C@@H](CC(N)=O)C(=O)N[C@H]2C(=O)N[C@H]3C(=O)N[C@H](C(=O)N[C@H](C(=O)O)c4cc(O)cc(O)c4-c4cc3ccc4O)[C@H](O)c3ccc(c(Cl)c3)Oc3cc2cc(c3O[C@@H]2O[C@H](CO)[C@@H](O)[C@H](O)[C@H]2O[C@H]2C[C@](C)(N)[C@H](O)[C@H](C)O2)Oc2ccc(cc2Cl)[C@H]1O [Vancomycin, reference compound]",solubility at 12 h,"[2]; aqueous buffer, PBS, peptide 25 to 200 µM, 12 hours at room temperature, read-out: Solubility in solution PBS",> 200 µM
same,solubility at 12 h,"[2]; plasma or biological fluid, CAMHB, peptide 25 to 200 µM, 12 hours at room temperature, read-out: Solubility in solution CAMHB",> 200 µM
same,solubility at 12 h,"[2]; water, H2O, observed for 12 hours at room temperature, read-out: Solubility in solution H2O",> 2000 µM
VWVWVWVRKKR-NH2 [LSH99],MIC MRAB (A. baumannii) ATCC BAA 1605,[3],2.5 µM
same,MIC VRE (E. faecalis) ATCC 51575,[4],10 µM
same,MIC MRSA (S. aureus) KCCM 40510,[5],>40 µM
same,MIC MRPA (P. aeruginosa) CCARM 2180,[6],>40 µM
"CC[C@@H](C)[C@@H](NC(=O)[C@@H](Cc1c[nH]c2ccccc12)NC(=O)[C@H](NC(=O)[C@@H](Cc1c[nH]c2ccccc12)NC(=O)[C@@H](CCCNC(=N)N)NC(=O)[C@@H](CCCNC(=N)N)NC(=O)[C@H](N)CCCNC(=N)N)[C@H](C)CC)C(=O)N[C@H](CC(C)C)C(=O)N[C@H](Cc1c[nH]c2ccccc12)C(N)=O [KSH59, rrrwiwilw] (H-[dR][dR][dR][dW][dI][dW][dI][dL][dW]-NH2; N-terminus assumed)",MIC MRAB (A. baumannii) ATCC BAA 1605,[3],1.25 µM
same,MIC VRE (E. faecalis) ATCC 51575,[4],0.63 µM
same,MIC MRSA (S. aureus) KCCM 40510,[5],0.63 µM
same,MIC MRPA (P. aeruginosa) CCARM 2180,[6],2.5 µM
"CC(C)[C@@H](NC(=O)[C@@H](Cc1c[nH]c2ccccc12)NC(=O)[C@@H](Cc1c[nH]c2ccccc12)NC(=O)[C@H](NC(=O)[C@@H](Cc1c[nH]c2ccccc12)NC(=O)[C@@H](CCCNC(=N)N)NC(=O)[C@@H](CCCNC(=N)N)NC(=O)[C@H](N)CCCNC(=N)N)C(C)C)C(=O)N[C@H](Cc1c[nH]c2ccccc12)C(=O)N[C@H](Cc1c[nH]c2ccccc12)C(N)=O [KSH79, rrrwvwwvww] (H-[dR][dR][dR][dW][dV][dW][dW][dV][dW][dW]-NH2; N-terminus assumed)",MIC MRAB (A. baumannii) ATCC BAA 1605,[3],10 µM
same,MIC VRE (E. faecalis) ATCC 51575,[4],1.25 µM
same,MIC MRSA (S. aureus) KCCM 40510,[5],1.25 µM
same,MIC MRPA (P. aeruginosa) CCARM 2180,[6],2.5 µM
WVVWVVYRKKR-NH2 [LSH7],MIC MRAB (A. baumannii) ATCC BAA 1605,[3],5 µM
same,MIC VRE (E. faecalis) ATCC 51575,[4],20 µM
same,MIC MRSA (S. aureus) KCCM 40510,[5],20 µM
same,MIC MRPA (P. aeruginosa) CCARM 2180,[6],>40 µM
"CC(C)[C@@H](NC(=O)[C@@H](Cc1c[nH]c2ccccc12)NC(=O)[C@H](NC(=O)[C@H](NC(=O)[C@@H](Cc1c[nH]c2ccccc12)NC(=O)[C@@H](CCCNC(=N)N)NC(=O)[C@@H](CCCNC(=N)N)NC(=O)[C@H](N)CCCNC(=N)N)C(C)C)C(C)C)C(=O)N[C@@H](C(=O)N[C@H](Cc1c[nH]c2ccccc12)C(N)=O)C(C)C [KSH84, rrrwvvwvvw] (H-[dR][dR][dR][dW][dV][dV][dW][dV][dV][dW]-NH2; N-terminus assumed)",MIC MRAB (A. baumannii) ATCC BAA 1605,[3],10 µM
same,MIC VRE (E. faecalis) ATCC 51575,[4],1.25 µM
same,MIC MRSA (S. aureus) KCCM 40510,[5],1.25 µM
same,MIC MRPA (P. aeruginosa) CCARM 2180,[6],2.5 µM
"CC[C@@H](C)[C@@H](NC(=O)[C@@H](Cc1c[nH]c2ccccc12)NC(=O)[C@@H](C)NC(=O)[C@@H](C)NC(=O)[C@H](N)Cc1c[nH]c2ccccc12)C(=O)NCC(=O)N[C@H](CC(C)C)C(=O)N[C@H](CCCNC(=N)N)C(=O)N[C@H](CCCCN)C(=O)N[C@H](CCCCN)C(=O)N[C@H](CCCCN)C(N)=O [KSH75, waawiglrkkk] (H-[dW][dA][dA][dW][dI]G[dL][dR][dK][dK][dK]-NH2; N-terminus assumed)",MIC MRAB (A. baumannii) ATCC BAA 1605,[3],2.5 µM
same,MIC VRE (E. faecalis) ATCC 51575,[4],>10 µM
same,MIC MRSA (S. aureus) KCCM 40510,[5],>10 µM
same,MIC MRPA (P. aeruginosa) CCARM 2180,[6],>10 µM
WVVWVYVRKKR-NH2 [LSH6],MIC MRAB (A. baumannii) ATCC BAA 1605,[3],2.5 µM
same,MIC VRE (E. faecalis) ATCC 51575,[4],10 µM
same,MIC MRSA (S. aureus) KCCM 40510,[5],10 µM
same,MIC MRPA (P. aeruginosa) CCARM 2180,[6],40 µM
"CCCCCCCCCC(=O)NCCCC[C@@H](N)C(=O)N[C@H](Cc1c[nH]c2ccccc12)C(=O)N[C@H](CC(C)C)C(=O)N[C@H](CC(C)C)C(=O)N[C@H](Cc1c[nH]c2ccccc12)C(=O)N[C@@H](C(=O)NCC(=O)N[C@H](CC(C)C)C(=O)N[C@H](CCCNC(=N)N)C(=O)N[C@H](CCCCN)C(=O)N[C@H](CCCCN)C(=O)N[C@H](CCCNC(=N)N)C(N)=O)[C@H](C)CC [KSH10, kwllwiglrkkr] (H-[dK](Decanoyl)[dW][dL][dL][dW][dI]G[dL][dR][dK][dK][dR]-NH2; N-terminus assumed)",MIC MRAB (A. baumannii) ATCC BAA 1605,[3],>20 µM
same,MIC VRE (E. faecalis) ATCC 51575,[4],5 µM
same,MIC MRSA (S. aureus) KCCM 40510,[5],5 µM
same,MIC MRPA (P. aeruginosa) CCARM 2180,[6],>20 µM
"CCCCCCCCCC(=O)NCCCC[C@@H](NC(=O)[C@@H](CCCCN)NC(=O)[C@@H](CCCNC(=N)N)NC(=O)[C@@H](CC(C)C)NC(=O)[C@@H](C)NC(=O)[C@H](NC(=O)[C@@H](Cc1c[nH]c2ccccc12)NC(=O)[C@@H](CC(C)C)NC(=O)[C@@H](CC(C)C)NC(=O)[C@H](N)Cc1c[nH]c2ccccc12)[C@H](C)CC)C(=O)N[C@H](CCCNC(=N)N)C(N)=O [KSH4, wllwialrkkr] (H-[dW][dL][dL][dW][dI][dA][dL][dR][dK][dK](Decanoyl)[dR]-NH2; N-terminus assumed)",MIC MRAB (A. baumannii) ATCC BAA 1605,[3],>40 µM
same,MIC VRE (E. faecalis) ATCC 51575,[4],5 µM
same,MIC MRSA (S. aureus) KCCM 40510,[5],5 µM
same,MIC MRPA (P. aeruginosa) CCARM 2180,[6],>40 µM
